The values that follow come from patent US9296741B2, “Bromodomain inhibitors” (priority 2012, dated 2016).

Usually Ki stands for the equilibrium dissociation constant of an inhibitor or competing ligand from its target. High values mean a looser hold on the target, low ones a stronger hold on the target.

A short description of series [1]: Mouse liver microsome stability assay. The format is in vitro ADME. To be noted: male, CD1, mouse, microsomes, pH 7.4. (In general: Liver microsomes are vesicles of endoplasmic reticulum, rich in cytochrome P450 enzymes.)
Series [2] addresses human BRD4 second bromodomain (BDII_E352-M457) (Homo sapiens (Human), UniProt O60885). In words: TR-FRET bromodomain binding assay, BRD4 second bromodomain. (TR-FRET usually uses a lanthanide donor and a delayed reading to cut background.)
Series [3] deals with human BRD4 first bromodomain (BDI_K57-E168) (Homo sapiens (Human), UniProt O60885). In words: TR-FRET bromodomain binding assay, BRD4 first bromodomain.
The test system of series [4] is breast cancer cell line MX-1. The experiment in a line: MX-1 cell line proliferation assay. The series is classed as cell-based, human. The settings on record: Homo sapiens, MX1, 72 h; MX-1 cells, 3-day proliferation, Cell Titer Glo; read-out: Cellular proliferation: EC50. On the technique in general: In ATP-based viability assays light output follows the ATP content of the culture.

The subject of series [5] is LPS induced IL-6 production. The experiment in a line: LPS (lipopolysaccharide) induced IL-6 production mouse assay. To be noted: Mus musculus, read-out: Inhibition of LPS induced IL-6 production in Mice, % inhibition at 3 mg/kg; 3 mg/kg oral, 1 h before LPS; serum IL-6 2 h after LPS. The format is in vivo.
Series [6] is described as follows: Rat liver microsome stability assay. The series is classed as in vitro ADME. The settings on record: rat liver microsomes (male Sprague-Dawley), 0.5 μM test compound, 0.25 mg/mL microsomal protein, pH 7.4, 37° C.; read-out: Stability in rat liver microsomes (t1/2 in minutes).
A short description of series [7]: Human liver microsome stability assay. The settings on record: both sexes, human, microsomes, pH 7.4. The series is classed as in vitro ADME.

Bounds are passed on as bounds.

Turning to `CCS(=O)(=O)c1ccc(OCC2CC2)c(-c2cn(C)c(=O)c3[nH]ccc23)c1` [Example 198, 4-[2-(cyclopropylmethoxy)-5-(ethylsulfonyl)phenyl]-6-methyl-1,6-dihydro-7H-pyrrolo[2,3-c]pyridin-7-one], the half-life at 0.5 μM in series [1] came to 55 min. Further, the inhibition constant Ki in series [2] was 1.6 nM; in series [3], 1.3 nM. The EC50 in series [4] worked out at 9.3 nM. Also, the inhibition in vivo at 3 mg/kg in series [5] was 66%.
With `CCS(=O)(=O)c1ccc(Oc2ccc(C#N)cc2)c(-c2cn(C)c(=O)c3[nH]ccc23)c1` [Example 304, 4-[4-(ethylsulfonyl)-2-(6-methyl-7-oxo-6,7-dihydro-1H-pyrrolo[2,3-c]pyridin-4-yl)phenoxy]benzonitrile], the half-life at 0.5 μM in series [1] was 72 min; in series [6], 65 min; in series [7], more than 120 min. Also, the Ki in series [2] worked out at 21.8 nM; in series [3], 9 nM. In addition, the EC50 in series [4] amounted to 32.3 nM. For the same compound, the inhibition in vivo at 3 mg/kg in series [5] was 67%.
With `Cn1cc(-c2cc(S(=O)(=O)C3CC3)ccc2Oc2ccc(F)cc2F)c2cc[nH]c2c1=O` [Example 290, 4-[5-(cyclopropylsulfonyl)-2-(2,4-difluorophenoxy)phenyl]-6-methyl-1,6-dihydro-7H-pyrrolo[2,3-c]pyridin-7-one], the half-life at 0.5 μM in series [1] came out at 52 min; in series [6], 48 min; in series [7] it was 73 min. Besides, the Ki amounted to 1.9 nM in series [2] and 5 nM in series [3]. For the same compound, the EC50 in series [4] stood at 36.2 nM. Besides, the inhibition in vivo at 3 mg/kg in series [5] was determined as 64%.
In the case of `Cn1cc(-c2cc(NS(C)(=O)=O)ccc2Oc2c(F)cc(F)cc2F)c2cc[nH]c2c1=O` [Example 49, N-[3-(6-methyl-7-oxo-6,7-dihydro-1H-pyrrolo[2,3-c]pyridin-4-yl)-4-(2,4,6-trifluorophenoxy)phenyl]methanesulfonamide], the half-life at 0.5 μM in series [1] amounted to 46 min; in series [6], 51 min; in series [7], 71 min. Moreover, the figures for the Ki in series [2] and in series [3] were 1.5 nM and 1.7 nM, respectively. Further, in series [4], the EC50 came to 19.6 nM. Also, the inhibition in vivo at 3 mg/kg in series [5] came to 57%.
As for `Cn1cc(-c2cc(S(C)(=O)=O)cnc2Oc2ccc(F)cc2F)c2cc[nH]c2c1=O` [Example 288, 4-[2-(2,4-difluorophenoxy)-5-(methylsulfonyl)pyridin-3-yl]-6-methyl-1,6-dihydro-7H-pyrrolo[2,3-c]pyridin-7-one], the half-life at 0.5 μM was more than 120 min in series [1], more than 120 min in series [6] and 85 min in series [7]. The Ki was found to be 53.9 nM in series [2] and 71.9 nM in series [3]. The EC50 in series [4] came out at 173 nM. For the same compound, in series [5], the inhibition in vivo at 3 mg/kg turned out to be 60%.
In the case of `Cn1cc(-c2cc(C(=O)N3CCOCC3)ccc2Oc2ccc(F)cc2F)c2cc[nH]c2c1=O` [Example 56, 4-[2-(2,4-difluorophenoxy)-5-(morpholin-4-ylcarbonyl)phenyl]-6-methyl-1,6-dihydro-7H-pyrrolo[2,3-c]pyridin-7-one], the half-life at 0.5 μM was determined as 36 min in series [1], 30 min in series [6] and 39 min in series [7]. Further, the Ki in series [2] was 2.4 nM; in series [3], 12.2 nM. In series [4], the EC50 was determined as 251 nM. Moreover, in series [5], the inhibition in vivo at 3 mg/kg came to 28%.
Turning to `CCS(=O)(=O)c1ccc(NC2CC2)c(-c2cn(C)c(=O)c3[nH]ccc23)c1` [Example 267, 4-[2-(cyclopropylamino)-5-(ethylsulfonyl)phenyl]-6-methyl-1,6-dihydro-7H-pyrrolo[2,3-c]pyridin-7-one], the values for the half-life at 0.5 μM in series [1], in series [6] and in series [7] were more than 120 min, 18 min and 95 min, respectively. In addition, the inhibition constant (Ki) in series [2] turned out to be 4.2 nM; in series [3] it was 4.4 nM. The EC50 in series [4] worked out at 43.6 nM. The inhibition in vivo at 3 mg/kg in series [5] turned out to be 74%.
On to `Cn1cc(-c2cc(S(C)(=O)=O)ccc2Oc2ccc(Cl)cc2)c2cc[nH]c2c1=O` [Example 154, 4-[2-(4-chlorophenoxy)-5-(methylsulfonyl)phenyl]-6-methyl-1,6-dihydro-7H-pyrrolo[2,3-c]pyridin-7-one], for which the values for the half-life at 0.5 μM in series [1], in series [6] and in series [7] were 18 min, 66 min and 42 min, respectively. Moreover, the Ki in series [2] was 13.1 nM; in series [3], 20.8 nM. Moreover, in series [4], the EC50 turned out to be 65.5 nM. For the same compound, the inhibition in vivo at 3 mg/kg in series [5] was 73%.
For `Cn1cc(-c2cc(S(C)(=O)=O)ccc2Oc2ccc3ncccc3c2)c2cc[nH]c2c1=O` [Example 162, 6-methyl-4-[5-(methylsulfonyl)-2-(quinolin-6-yloxy)phenyl]-1,6-dihydro-7H-pyrrolo[2,3-c]pyridin-7-one], the half-life at 0.5 μM in series [1] was 11 min; in series [6], 41 min; in series [7], 96 min. Moreover, the Ki stood at 4.6 nM in series [2] and 11.1 nM in series [3]. Further, in series [4], the EC50 turned out to be 127 nM. Further, in series [5], the inhibition in vivo at 3 mg/kg was 41%.
In the case of `CC(O)c1cc2c(-c3cc(S(C)(=O)=O)ccc3Oc3ccc(F)cc3F)cn(C)c(=O)c2[nH]1` (centres unmarked) [Example 278, 4-[2-(2,4-difluorophenoxy)-5-(methylsulfonyl)phenyl]-2-(1-hydroxyethyl)-6-methyl-1,6-dihydro-7H-pyrrolo[2,3-c]pyridin-7-one], the half-life at 0.5 μM in series [1], in series [6] and in series [7] was more than 120 min in each case. The results for the inhibition constant Ki in series [2] and in series [3] were 11.2 nM and 12.1 nM, respectively. Besides, in series [4], the EC50 was 135 nM. Besides, the inhibition in vivo at 3 mg/kg in series [5] amounted to 51%.
For `Cn1cc(-c2cc(S(N)(=O)=O)cnc2Oc2ccc(F)cc2F)c2cc[nH]c2c1=O` [Example 242, 6-(2,4-difluorophenoxy)-5-(6-methyl-7-oxo-6,7-dihydro-1H-pyrrolo[2,3-c]pyridin-4-yl)pyridine-3-sulfonamide], the half-life at 0.5 μM was more than 120 min in series [1], 86 min in series [6] and more than 120 min in series [7]. The Ki in series [2] stood at 5.8 nM; in series [3], 36.5 nM. Also, the EC50 in series [4] was found to be 289 nM. For the same compound, the inhibition in vivo at 3 mg/kg in series [5] was determined as 46%.
Take `Cn1cc(-c2cc(S(=O)(=O)N3CC(F)(F)C3)ccc2OCC2CC2)c2cc[nH]c2c1=O` [Example 308, 4-{2-(cyclopropylmethoxy)-5-[(3,3-difluoroazetidin-1-yl)sulfonyl]phenyl}-6-methyl-1,6-dihydro-7H-pyrrolo[2,3-c]pyridin-7-one]: the values for the half-life at 0.5 μM in series [1], in series [6] and in series [7] were 16 min, 10 min and 20 min, respectively. For the same compound, the figures for the Ki in series [2] and in series [3] were 6.5 nM and 49.9 nM, respectively. In addition, the EC50 in series [4] came to 29.3 nM. For the same compound, the inhibition in vivo at 3 mg/kg in series [5] came out at 48%.
Regarding `CN(C)S(=O)(=O)c1ccc(OCC2CC2)c(-c2cn(C)c(=O)c3[nH]ccc23)c1` [Example 273, 4-(cyclopropylmethoxy)-N,N-dimethyl-3-(6-methyl-7-oxo-6,7-dihydro-1H-pyrrolo[2,3-c]pyridin-4-yl)benzenesulfonamide], the half-life at 0.5 μM in series [1] was 8 min; in series [6], 12 min; in series [7], 9 min. Further, the figures for the Ki in series [2] and in series [3] were 1.3 nM and 1.2 nM, respectively. Moreover, the EC50 in series [4] stood at 9 nM. Further, the inhibition in vivo at 3 mg/kg in series [5] was found to be 47%.
For the compound `CCS(=O)(=O)c1ccc(O[C@H]2CC[C@@H](OC)CC2)c(-c2cn(C)c(=O)c3[nH]ccc23)c1` [Example 248, 4-{5-(ethylsulfonyl)-2-[(cis-4-methoxycyclohexyl)oxy]phenyl}-6-methyl-1,6-dihydro-7H-pyrrolo[2,3-c]pyridin-7-one], the figures for the half-life at 0.5 μM in series [1], in series [6] and in series [7] were 5 min, 16 min and 13 min, respectively. In addition, the Ki in series [2] was determined as 1.3 nM; in series [3], 1.9 nM. In addition, in series [4], the EC50 was 26.4 nM. Further, the inhibition in vivo at 3 mg/kg in series [5] was 82%.
Consider `CCS(=O)(=O)c1ccc(OC2CCC3(CC2)OCCO3)c(-c2cn(C)c(=O)c3[nH]ccc23)c1` [Example 197, 4-[2-(1,4-dioxaspiro[4.5]dec-8-yloxy)-5-(ethylsulfonyl)phenyl]-6-methyl-1,6-dihydro-7H-pyrrolo[2,3-c]pyridin-7-one], for which the results for the half-life at 0.5 μM in series [1], in series [6] and in series [7] were 10 min, 15 min and 16 min, respectively. Moreover, the values for the inhibition constant Ki in series [2] and in series [3] were 0.79 nM and 1.5 nM, respectively. Besides, in series [4], the EC50 was 11.7 nM. Also, the inhibition in vivo at 3 mg/kg in series [5] stood at 59%.
For the compound `Cn1cc(-c2cc(CS(C)(=O)=O)ccc2Oc2ccc(F)cc2F)c2cc[nH]c2c1=O` [Example 287, 4-{2-(2,4-difluorophenoxy)-5-[(methylsulfonyl)methyl]phenyl}-6-methyl-1,6-dihydro-7H-pyrrolo[2,3-c]pyridin-7-one], the half-life at 0.5 μM was 29 min in series [1], 116 min in series [6] and more than 120 min in series [7]. Also, the EC50 in series [4] was 19.5 nM. For the same compound, in series [5], the inhibition in vivo at 3 mg/kg amounted to 73%.
In the same order, the values of `Cn1cc(-c2cc(S(N)(=O)=O)ccc2OCC2CC2)c2cc[nH]c2c1=O` [Example 249, 4-(cyclopropylmethoxy)-3-(6-methyl-7-oxo-6,7-dihydro-1H-pyrrolo[2,3-c]pyridin-4-yl)benzenesulfonamide] are more than 120 min, more than 120 min, more than 120 min, 14.4 nM and 59%.
